“And” between values parts separate entries of the source, which are not always exact repeats. Equal values may be shown once.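 The compound was tested at five concentrations on cells cultured in 96-well plates, with a 48-hour exposure period. At the GI50, growth is halved. At the TGI there is no net growth.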
Key:
Test in all cases: NCI-60 cell line screen, 48 h
DMS 114 small cell lung = tested on: DMS 114 small cell lung
DMS 273 small cell lung = tested on: DMS 273 small cell lung
HOP-18 NSCLC = tested on: HOP-18 NSCLC
KM20L2 colon = tested on: KM20L2 colon
M19-MEL melanoma = tested on: M19-MEL melanoma
RXF-631 renal = tested on: RXF-631 renal
XF 498 CNS = tested on: XF 498 CNS
MDA-N = tested on: MDA-N
DLD-1 colon = tested on: DLD-1 colon
SN12K1 renal = tested on: SN12K1 renal

Structure (SMILES) | TGI (DMS 114 small cell lung) | TGI (DMS 273 small cell lung) | TGI (HOP-18 NSCLC) | TGI (KM20L2 colon) | TGI (M19-MEL melanoma) | TGI (RXF-631 renal) | TGI (XF 498 CNS) | TGI (MDA-N) | TGI (DLD-1 colon) | also measured
CCCCNC(=O)C1C(=O)N(CCCC)C(=O)/C1=N\N (stereo not given) | > 100 µM | > 100 µM | > 100 µM | > 100 µM | > 100 µM | > 100 µM | > 100 µM |  |  | 
CCc1nc(N)nc(N)c1-c1ccc2nnn(O)c2c1 |  |  |  |  |  |  |  | > 100 µM |  | 
O=c1c2ccccc2nc(/C=C(\O)c2ccncc2)n1-c1ccc(Cl)cc1 | > 100 µM |  |  | > 100 µM | > 100 µM |  | 66.4 µM |  | > 100 µM | 
O=C(O)COc1ccc(C(=O)/C(SS/C(C(=O)c2ccc(OCC(=O)O)c(Cl)c2Cl)=C2\C=C(c3ccc(Cl)cc3)SS2)=C2/C=C(c3ccc(Cl)cc3)SS2)c(Cl)c1Cl |  | 32.7 µM | 23 µM | 54.5 µM | 20.6 µM | > 100 µM |  |  | 24.6 µM | 
CC1=NN(c2ccc(S(=O)(=O)O)cc2)C(=O)/C1=C/c1ccc(Cl)cc1 |  |  |  |  |  |  |  | > 100 µM |  | 
C[C@@H]1CCC([C@@H](C)[C@H]2CC[C@H]3[C@@H]4CC[C@H]5C[C@@H](O)CC[C@]5(C)[C@H]4CC[C@]23C)=NC1 |  |  |  |  |  |  |  | > 100 µM |  | 
O=C(c1ccccc1)C(c1ccccc1)C1(O)C(=O)Nc2ccc([N+](=O)[O-])cc21 (stereo not given) | 79.3 µM |  |  | > 100 µM | 72.2 µM | > 100 µM | > 100 µM |  | > 100 µM | 
O=C1[C@@H]2C(c3ccccc3[N+](=O)[O-])=[N+](c3ccccc3)O[C@@H]2C(=O)N1c1ccc(Cc2ccc(N3C(=O)[C@H]4C(c5ccccc5[N+](=O)[O-])=[N+](c5ccccc5)O[C@H]4C3=O)cc2)cc1 | > 100 µM | > 100 µM | > 100 µM | > 100 µM | > 100 µM |  |  |  | > 100 µM | 
O=C1C=CC(=O)c2c1ccc1c3ccccc3n(-c3ccccc3)c21 | 40.4 µM | 32.1 µM | 20.7 µM | 36.9 µM | 36.1 µM | 82.2 µM | 20.1 µM | 18.3 µM | 6.99 µM | 
CCOC(=O)NC/C=C/COC1CCCCO1 (stereo not given) | > 100 µM | > 100 µM | > 100 µM | > 100 µM | > 100 µM |  |  |  | > 100 µM | 
Nc1nc(Cl)cc(NCC(O)CO)n1 (stereo not given) | > 100 µM | > 100 µM | > 100 µM | > 100 µM | > 100 µM |  | > 100 µM |  | > 100 µM | 
O=C(OC1CCC2OOC1O2)c1ccc([N+](=O)[O-])cc1 (stereo not given) | > 100 µM | > 100 µM |  | > 100 µM | > 100 µM |  |  |  |  | 
CCC(O)C1Cc2c(C)cc3c(c2O1)C(=O)c1ccccc1C3=O (stereo not given) | 97.7 µM | > 100 µM | 73.6 µM | > 100 µM | > 100 µM |  | 58.9 µM |  | > 100 µM | 
CC1(C)CC[C@]2(C(=O)O)CC[C@]3(C)C(=CC[C@@H]4[C@@]5(C)C[C@H](O)[C@H](O)[C@@](C)(C(=O)O)[C@@H]5CC[C@]43C)[C@@H]2C1 |  |  |  |  |  |  |  | > 100 µM |  | 
COc1cc2c(c(OC)c1OC)-c1ccc(OC)c(=O)cc1[C@@H](NC(C)=O)CC2 | 0.0724 µM |  |  | 0.00625 µM and 0.036 µM and < 0.0625 µM | > 522 µM | > 91.2 µM |  | 0.833 µM | > 625 µM | GI50 (DLD-1 colon): 0.0176 µM; GI50 (KM20L2 colon): 0.00285 µM and 0.018 µM; GI50 (SN12K1 renal): 0.00298 µM; TGI (SN12K1 renal): 0.00625 µM and < 0.0625 µM
c1ccc2cc(NCNc3ccc4ccccc4c3)ccc2c1 |  |  |  |  |  |  |  | 18.6 µM |  | 
CCOC(=O)C(N=C(c1ccccc1)c1ccccc1)N(C(=O)OC(C)(C)C)C(=O)OC(C)(C)C (stereo not given) | > 100 µM |  |  | > 100 µM | > 100 µM |  |  |  |  | 
CCOC(=O)Cc1csc(Nc2ccc(OCC)cc2)n1 | > 100 µM |  | > 100 µM | > 100 µM | > 100 µM | > 100 µM | > 100 µM |  | > 100 µM | 
O=C(NCc1cccnc1)C1COc2cc(-c3cc(=O)c4ccccc4o3)ccc2O1 (stereo not given) | > 79.5 µM |  | > 100 µM | > 100 µM | > 100 µM | > 100 µM | 72.1 µM |  | > 100 µM | 
Cc1ccc(-c2cc3c4c(nc5ccccc53)C(=O)c3cccnc3-c4n2)cc1 |  |  |  |  |  |  |  | 10.3 µM |  | GI50 (MDA-N): 3.27 µM

Structure (SMILES) | TGI (DMS 114 small cell lung) | TGI (DMS 273 small cell lung) | TGI (HOP-18 NSCLC) | TGI (KM20L2 colon) | TGI (M19-MEL melanoma) | TGI (RXF-631 renal) | TGI (XF 498 CNS) | TGI (MDA-N) | TGI (DLD-1 colon) | also measured
CCCCC(C(=O)CCC(=O)Nc1ccc(Cl)c(Cl)c1)C(=O)C(C)C (stereo not given) | > 100 µM | > 100 µM | > 100 µM | > 100 µM | > 100 µM |  |  |  | > 100 µM | 
COc1cc(-c2oc3c(OC)cc(OC)c(O)c3c(=O)c2OC)cc(OC)c1OC |  |  |  |  |  |  |  | > 100 µM |  | 
CC[C@@]1(O)C(=O)OCc2c1cc1n(c2=O)Cc2cc3cccc([N+](=O)[O-])c3nc2-1 | 38.3 µM | 1.67 µM | > 100 µM | 41.7 µM |  |  | 34.6 µM |  | > 100 µM | GI50 (DLD-1 colon): 24.6 µM; GI50 (DMS 114 small cell lung): 0.684 µM; GI50 (DMS 273 small cell lung): 0.175 µM; GI50 (HOP-18 NSCLC): 1.85 µM; GI50 (KM20L2 colon): 3.24 µM; GI50 (XF 498 CNS): 3.12 µM
Cc1cc(C)n(-c2ccnc3cc(Cl)ccc23)n1 | > 100 µM | > 100 µM | > 100 µM | > 100 µM | > 100 µM |  | > 100 µM |  | > 100 µM | 
O=C(NC(=O)c1ccccc1[N+](=O)[O-])Nc1ccc(Oc2ncc(Cl)cn2)c([N+](=O)[O-])c1 | 0.359 µM | > 100 µM | > 100 µM | 0.383 µM | > 100 µM | > 100 µM |  |  | > 100 µM | 
COc1cc(O)c2c(c1)O[C@@H]1OCC[C@H]21 | > 100 µM | > 100 µM | > 100 µM | > 100 µM |  |  | > 100 µM |  | > 100 µM | 
COC(=O)C1=CO[C@@H](OC2OC(CO)C(O)C(O)C2O)[C@H]2[C@@H](C)[C@@H](O)[C@@H](O)[C@@H]12 (stereo not given in full) |  |  |  |  |  |  |  | > 100 µM |  | 
N=N/C(=C\c1c(O)[nH]c2ccccc12)c1ccccc1 |  |  |  |  |  |  |  | 13.7 µM |  | 
COC(=O)C1=COC(C)C2CN3CCc4c([nH]c5cc(OC)c(OC)cc45)C3CC12 (stereo not given) |  |  |  |  |  |  |  | > 100 µM |  | 
COc1ccc(NC(=O)CC/C(CC(=O)c2ccco2)=N/NC(N)=S)cc1 | > 100 µM | > 100 µM | > 100 µM | > 100 µM | > 100 µM | > 100 µM | > 100 µM |  | > 100 µM | 
COC(=O)c1ccccc1N1C(=O)Cc2ccccc2C1=O | > 100 µM | > 100 µM |  | > 100 µM | > 100 µM |  |  |  |  | 
CC1=CCCC2C1(C)CCC(C)C2(C)Cc1cc(O)ccc1O (stereo not given) | 13.3 µM | 20.2 µM | 36.2 µM | 27.9 µM | 20.8 µM |  | 21.7 µM | 25.3 µM | 22.2 µM | TGI (SN12K1 renal): 13.5 µM
CONC(C)=O |  |  |  |  |  |  |  | > 100 µM |  | 
CC1(Br)CC2OC3(Br)C=CC(C)(O)C2(CC1=O)C3(C)C (stereo not given) | > 100 µM | > 100 µM | > 100 µM | > 100 µM |  |  | > 100 µM |  | > 100 µM | 
O=[N+]([O-])c1ccc(C2=Nn3c(nnc3-c3ccc(Cl)cc3)SC2)o1 | 12.4 µM | 31.1 µM | 33.6 µM | 16.1 µM | 7.95 µM | 27.9 µM | 28.7 µM | 16.4 µM | 4.32 µM | 
O=C(O)C(C(=O)O)P(=S)(S)c1ccccc1 (stereo not given) | > 100 µM | > 100 µM |  | > 100 µM | > 100 µM | > 100 µM | > 100 µM | > 100 µM | > 100 µM | 
CCCNCC(=O)O[C@]1(CC)C(=O)OCc2c1cc1n(c2=O)Cc2cc3ccccc3nc2-1 | 0.941 µM | 0.114 µM | > 100 µM | 19.2 µM | 1.96 µM |  | 0.652 µM |  | > 100 µM | 
O=C1NC2C(=CC(O)C(O)C2O)c2cc3c(cc21)OCO3 (stereo not given) | 3.84 µM and 2.17 µM | 1.99 µM and 2.07 µM | 4.33 µM and 13.1 µM | 5.54 µM and 5.32 µM | 1.72 µM and 1.53 µM | 3.13 µM | 0.93 µM and 1.81 µM and 0.644 µM | 1.22 µM | 2.11 µM | GI50 (DLD-1 colon): 0.325 µM and 0.217 µM; GI50 (DMS 114 small cell lung): 0.335 µM and 0.321 µM; GI50 (DMS 273 small cell lung): 0.604 µM and 0.301 µM; GI50 (HOP-18 NSCLC): 0.545 µM and 0.392 µM; GI50 (KM20L2 colon): 0.34 µM and 0.261 µM; GI50 (M19-MEL melanoma): 0.353 µM and 0.282 µM; GI50 (RXF-631 renal): 0.23 µM; TGI (SN12K1 renal): 1.8 µM; GI50 (XF 498 CNS): 0.207 µM and 0.416 µM
NC(N)=NC(N)=Nc1cnccn1 |  |  |  |  |  |  |  | > 100 µM |  | 
